For orientation: IC50 means the concentration at which inhibition is half-maximal. Read a low IC50 as greater potency.

What all share (assay type): binding, rabbit
Assay [1] has as its system Antiserum RY778 (anti-phthalic acid ester antibody). In words: ELISA for diethyl phthalate and cross-reactivity test. The conditions noted are these: for Cross-reactivity: relative to diethyl phthalate (calculated as 100%) at B/B0=50, antiserum RY778; for IC50: competitive ELISA, antiserum RY778, biotinylated diethyl phthalate derivative as labeled antigen. How it is done:
An ELISA system of the present invention for diethyl phthalate was designed in the following manner.
Diethyl phthalate was diluted as follows. A solution (857 μg/mL) of 12 mg of diethyl phthalate in 15.7% DMSO was 10-fold diluted with PBS buffer to give a standard solution (85.7 μg/ml). Five-fold dilution of the standard solution was repeated to give solutions of various concentrations (17.1 μg/ml, 3.4 μg/ml, 0.69 μg/ml, 0.137 μg/ml, 0.027 μg/ml and 0.005 μg/ml). These solutions were used as diluted standard antigen solutions.
Biotin-Arg-Lys-aminocapronyl-4-amino-diethyl phthalate synthesized in Example 1 (4) was diluted to 2 ng/ml with PBS buffer and used as a labeled antigen solution.
Antiserum RY778 (anti-phthalic acid ester antibody) synthesized in Example 4 was diluted 10,000-fold with PBS buffer (containing 0.1% BSA and 0.1% Tween 20) and used as an antibody solution.
Goat anti-rabbit IgG (Jackson Immuno Research) was diluted 200-fold with 0.1M phosphate buffer (pH8.0), and 100 μl of the diluted IgG was pipetted into each well of a 96-well microtiter plate (Maxi Sorp, Nunc). The plate was allowed to stand at 25° C. for 18 to 20 hours and then the supernatant was removed. Subsequently, 340 μl of Block Ace (Dainippon Pharmaceutical Co., Ltd.) was pipetted into each well and the plate was allowed to stand at 25° C. for 18 to 20 hours whereby blocking was completed.
After the plate was washed with a wash solution (0.15M NaCl containing 0.1% Tween 20) 5 times, 50 μl of a diluted standard antigen solution or sample, 50 μl of the labeled antigen solution and 100 μl of the antibody solution were added to each well. The culture was incubated at 4° C. for 18 to 20 hours. The plate was washed 3 times with 0.3 ml of the wash solution, and then 0.1 ml of a streptavidin-horseradish peroxidase conjugate (×2500) was added. After incubation at room temperature for 1.5 hours, the plate was washed with 0.3 ml of the wash solution 4 times and then a tetramethyl benzidine-containing colorant (0.1 ml, product of Sigma) was added. After 30 minutes of coloring, 2N sulfuric acid was added to stop the reaction. Absorbance at 450 nm was measured.
A standard curve for diethyl phthalate was obtained from the results of the diluted standard antigen solutions (FIG. 1). In FIG. 1, the ordinate denotes absorbance (at 450 nm) and the abscissa denotes standard antigen concentration (ng/ml).
The cross-reactivity of the antibody of the invention with diethyl phthalate and structurally similar compounds was tested using the ELISA system described in Example 5.
Cross-reactivity (%) is defined as the molar concentration of each test antigen, relative to the concentration of diethyl phthalate (calculated as 100%), at B/B0=50.

In assay [2] the test system is antiserum RY850. The assay is described as follows: ELISA for benzyl n-butyl phthalate and cross-reactivity test. The conditions noted are these: ELISA system for benzyl n-butyl phthalate. As for the experimental part: An ELISA system of the invention for benzyl n-butyl phthalate was designed in a manner similar to that of Example 5, using benzyl n-butyl phthalate (product of Kanto Chemical Co., Inc.) as a standard antigen, using biotin-Arg-Lys-aminocapronyl-4-(or 5-)amino-benzyl n-butyl phthalate of Example 2 (2-6) as a labeled antigen and using antiserum RY850 (10,000-fold diluted) as an antiserum. The antiserum RY850 was prepared as in Example 4, but the aminocapronyl-4-(or 5-)amino-benzyl n-butyl phthalate of Example 2 (2-5) was used in place of aminocapronyl-4-amino-diethyl phthalate.
A standard curve for benzyl n-butyl phthalate was obtained (FIG. 2). In FIG. 2, the ordinate denotes absorbance (at 492 nm) and the abscissa denotes standard antigen concentration (ng/ml).
The cross-reactivity of the antibody of the invention with benzyl n-butyl phthalate and structurally similar compounds was determined using the ELISA system described in Example 8.

Assay [3] has as its system antiserum RY849. In words: ELISA for di-n-butyl phthalate and cross-reactivity test. The settings on record: ELISA system for di-n-butyl phthalate. How it is done: An ELISA system of the invention for di-n-butyl phthalate was designed in a manner similar to that of Example 5, using di-n-butyl phthalate (product of Wako Pure Chemical Industries, Inc.) as a standard antigen, using biotin-Arg-Lys-aminocapronyl-4-amino-di-n-butyl phthalate of Example 2 (2-4) as a labeled antigen and using antiserum RY849 (10,000-fold diluted) as an antiserum. The antiserum RY849 was prepared as in Example 4, but the aminocapronyl-4-amino-di-n-butyl phthalate of Example 2 (2-3) was used in place of aminocapronyl-4-amino-diethyl phthalate of Example 4.
A standard curve for di-n-butyl phthalate was obtained (FIG. 3).
The cross-reactivity of the antibody of the invention with di-n-butyl phthalate and structurally similar substances was determined using the ELISA system described in Example 10.

≈ marks a conversion by molar mass, not a printed value. Where a name gives a salt, the structure may show the parent alone.

For the compound `O=C(O)c1ccccc1` [Benzoic acid], the Cross-reactivity in assay [1] is recorded as less than 0.001%; in assay [1] (listed as benzoic acid) it was “less than 0.001%”.
Consider `CCCCC(CC)COC(=O)c1ccccc1C(=O)OCC(CC)CCCC` (stereo not shown) [Di(2-ethylhexyl)phtalate], for which the Cross-reactivity in assay [1] is listed as less than 0.001%.
In turn, `CCCCOC(=O)c1ccccc1C(=O)OCCCC` [Dibutyl phthalate] showed a half-inhibitory concentration (IC50) in assay [1] of 3.893432 µg/mL (≈ 14 µM). Also, the figures for the Cross-reactivity in assay [1], in assay [1] (listed as dibutyl phthalate) and in assay [2] were 0.014%, “about 0.01%” and 38.9%, respectively.
`CCOC(=O)c1ccccc1C(=O)OCC` [Diethyl phthalate]: the Cross-reactivity in assay [3] was 4%; in assay [1], 100%; in assay [1] (listed as diethyl phthalate), “high reactivity”. In assay [1], this compound displayed an IC50 of 0.000546 µg/mL (≈ 0.00246 µM).
Turning to `COC(=O)c1ccccc1C(=O)OC` [Dimethyl phthalate], the Cross-reactivity in assay [3] is recorded as 1.2%; in assay [1], 0.556%; in assay [1] (listed as dimethyl phthalate), “about 0.56%”. Also, in assay [1], the half-maximal inhibitory concentration (IC50) stood at 0.098178 µg/mL (≈ 0.506 µM).
As for `C/C(=C(/C)c1ccc(O)cc1)c1ccc(O)cc1` [Dimethyl stilbestrol], the Cross-reactivity is on record as less than 0.001% in assay [1] and “does not show substantial cross-reactivity” in assay [1] (listed as dimethyl stilbestrol).
Consider `CCOC(C)=O` [Ethyl acetate], for which, in assay [1], the half-inhibitory concentration (IC50) was 4.480033 µg/mL and the Cross-reactivity is on record as 0.012%.
On to `CCOC(=O)c1ccccc1` [Ethyl benzoate], for which, in assay [1], the IC50 came out at 4.391316 µg/mL (≈ 29.2 µM) and the Cross-reactivity was 0.012%.
As to `CCOC=O` [Ethyl formate], in assay [1], the IC50 came to 3.001226 µg/mL and the Cross-reactivity is reported as 0.018%.
`O=C(O)c1ccccc1C(=O)O` [Phthalic acid]: the Cross-reactivity in assay [1] was less than 0.001%.
`CCCCOC(=O)c1ccccc1C(=O)OCc1ccccc1` [benzyl n-butyl phthalate] registered a Cross-reactivity in assay [3] of 100%.
In assay [3], `CC/C(=C(/CC)c1ccc(O)cc1)c1ccc(O)cc1` [diethyl stilbestrol] had a Cross-reactivity of 1.5%.
As for nonylphenol, the Cross-reactivity in assay [3] is recorded as 3.4%; in assay [2] it was 2.3%.

The record behind these values is patent US6399318B1, “Immunoassay for phthalic acid esters” (Otsuka Pharmaceutical Co., Ltd., priority 2000, dated 2002).
